Data as given in patent US20240103005A1, “N-ACRYLOYLINDOLES AND METHODS OF USE” (The University of Hong Kong, priority 2022, published 2024).

Key:
231MFP cells = assay: WST-8 cell viability assay; assay type: cell-based
Method: WST-8 Cell Viability Assay of Cells Treated with NAIA-4 or IAA
231MFP cells were plated on 96-well plates (Corning, 3904) at 30,000 cells per well and allowed to grow in complete medium overnight. The cells were then incubated with DMSO solvent control, NAIA-4 or IAA at indicated concentrations for 2 h. The solution was replaced with new culture medium containing 10 μL of WST-8 solution (Abcam; ab228554) and incubated for 2 h in dark at 37° C. Cell viability were then assayed by the absorption at 460 nm on SpectraMax i3 (Molecular Devices).

HepG2 cell lysates = assay: Gel-based ABPP, in vitro Cys labeling of HepG2 cell lysates (in-gel fluorescence); assay type: biochemical
Method: In-Gel Fluorescence for Visualizing Cys Labeling by NAIAs and IAA In Vitro
HepG2 or 231MFP cells were lysed by probe sonication in DPBS, and cell debris were removed by centrifugation at 1,000 g for 5 min. Protein concentration of the lysates was determined by bicinchoninic acid (BCA) assay, and the lysates were then diluted to 2 mg/mL by DPBS. 50 μL of the lysates were incubated with indicated concentrations of NAIA-4, NAIA-5 or IAA for indicated time interval at room temperature. […] Samples were then separated by molecular weight on precast 4-20% TGX gels (Thermo Scientific) and scanned by ChemiDoc MP (Bio-Rad Laboratories, Inc) for measuring in-gel fluorescence. […]
With the in vitro characterization data in hand, we next moved to investigate the ability of NAIA in labeling functional cysteines in cell lysates and live cells. […] After the reaction, the protein mixture was resolved by sodium dodecyl sulphate-polyacrylamide gel electrophoresis (SDS-PAGE) and in-gel fluorescence was measured. […] The fluorescence intensity from these labeled protein bands can then reflect the degree of cysteine labeling by the probes. […]

HepG2 cells = assay: MS-based ABPP, live-cell cysteine labeling of HepG2 cells; design: species or system human; conditions: 10 μM, 1 h
Method: MS-Based ABPP Experiments to Identify Liganded Cysteines in HepG2 Cells by Live-Cell Labeling Using NAIA-5 or IAA.
HepG2 cells were plated on 15 cm tissue culture plates and allowed to grow in complete medium at 37° C. with 5% CO2 to ca. 80% confluency. The cells were then treated with NAIA-5 and IAA (10 μM), respectively, in complete medium and incubated at 37° C. with 5% CO2 for 1 h. The cells were washed, scrapped in PBS and lysed by sonication. After BCA assay, the cell lysates were diluted to 2 mg/mL, and 2 mL of the lysates were used for n=1 sample preparation. The lysates were then subjected to CuAAC reaction with DTB-PEG-azide, acetone precipitation, enrichment by streptavidin beads, reduction by TCEP followed by cysteine carbamidomethylation and tryptic digestion according to the same procedure described for the sample preparation of HepG2 cell lysate experiment except no pairing of the NAIA-5- and IAA-labeled samples. The probe-modified peptides were then eluted by elution buffer solution (MeCN/H2O, 1:1, v/v; with 0.1% formic acid), dried, desalted by C18 Stage tips and sent for LC-MS/MS analysis using Aurora C18 UHPLC column (75 μm i.d.×25 cm length×1.6 μm particle size; IonOpticks, Australia) coupled to timsTOF Pro mass spectrometer (Bruker), with the same experimental settings as described for the experiment on HepG2 cell lysates. […]

| Structure (SMILES) | cytotoxicity (in words) (231MFP cells) | cysteine labeling (in-gel fluorescence) compared with IAA, time-dependent (HepG2 cell lysates; 1 and 10 μM, 15 and 30 min) | cysteine labeling (in-gel fluorescence) compared with IAA (HepG2 cell lysates; 1 h incubation, three doses) | number of labeled cysteines in live cells compared with IAA (HepG2 cells) |
| --- | --- | --- | --- | --- |
| C#CCCCCNC(=O)CI [IAA, N-Hex-5-ynyl-2-iodoacetamide, reference compound] | high cellular cytotoxicity | – | – | – |
| C#CCCCCNC(=O)COc1ccc2c(ccn2C(=O)C=C)c1 [NAIA-5] | – | more cysteine labeling by NAIA-5 than IAA was found at 1 and 10 μM for both 15 and 30 min incubation | more cysteine labeling than IAA at all the three doses tested | higher number of labeled cysteines than IAA |
